# Measurements from US20120225417A1, “Methods, Compositions and Kits for the Evaluation and Preservation of Sperm” (I'Alliance Boviteq Inc., priority 2011, published 2012).
# Assays:
# Assay type in all cases: biochemical
# [1] = tested on: 3′-5′ cAMP-PDE activity in human spermatozoa; assay: 3′-5′ cAMP-PDE assay with family-specific PDE inhibitors in human spermatozoa; conditions: 95% fractionation method, papaverine 400 nM (FIG. 18)
# Method: Ejaculates were obtained by masturbation from healthy donors after a minimum of 2 days of sexual abstinence. After ejaculation, semen was kept at room temperature to allow liquefaction. To prepare human ejaculate, three different fractionation methods were used: “G2 method”, “40-80% fractionation” or “95% fractionation”.
# For “G2 method”, according to the ejaculate volume, approximately 1 ml of semen was added to 5 ml of isotonic solution: HEPES-buffered saline (HBS: 25 mM Hepes, 130 mM NaCl, 4 mM KCl, 0.5 mM MgCl2, 14 mM fructose, pH 7.6) in a 15 mL falcon tube to wash the spermatozoa from the seminal plasma. […] Then, the samples were vortex-agitated for 30 sec and kept on the ice until ready to run the assay. The concentration of sperm cells was measured according to hemacytometer method. […]
# The cAMP enzymatic assay (PDE assay) was conducted as previously described (Sasseville, M. et al., (2006). BMC developmental biology 6, 47). […] 3′-5′ cAMP-PDE activity was assessed at 34° C. in 200 μL final volume using 1 μM cAMP as substrate (Thompson, W. J. et al., (1979). Adv Cyclic Nucleotide Res 10, 69-92) with minor modifications. […] Knowing the exact concentrations of spermatozoa in each SP sample, total 3′-5′ cAMP-PDE activity was reported as the quantity of cAMP (fMol) hydrolysed per minute per the number of spermatozoa (fMol/min/10^6 spz). […]
# [2] = tested on: 3′-5′ cAMP-PDE activity in human seminal plasma; assay: 3′-5′ cAMP-PDE assay with family-specific PDE inhibitors in human seminal plasma; conditions: fresh human seminal plasma; Rolipram 10 μM, Papaverine 400 nM (FIG. 19)
# Method: A certain amount of complete ejaculate was kept to isolate spermatozoa from seminal plasma. This portion was centrifuged at 400×g during 10 minutes at room temperature to gently pull down spermatozoa. Supernatant was transferred and centrifuged again at 6 000×g at 4° C. during 20 minutes to pull down any remaining spermatozoa. Supernatant was then transferred and centrifuged at 6 000×g at 4° C. during 20 minutes to remove any remaining debris. SP samples were kept on ice until used for PDE assay and stored at -80° C. for further characterization. The cAMP enzymatic assay (PDE assay) was conducted as previously described ([…]. et al., (2006). BMC developmental biology 6, 47). […] J. et al., (1979). Adv Cyclic Nucleotide Res 10, 69-92) with minor modifications. […] Measurements were also performed in the presence of PDE inhibitors: […] Cilostamide and Rolipram were purchased from Biomol. […] Each PDE assay was performed in triplicate for each experiment and each experiment was repeated at least three times. As described ([…]. et al., (2009). […] IBMX-sensitive PDE5 and PDE6 and IBMX-insensitive PDE9 activities are absent from these groups because cGMP is the specific substrate and then are not detected in the cAMP-PDE assay. […] J Dairy Sci 92, 3757-3765; […]., et al. (2007). Endocrinology 148, 1858-1867; Siuciak, J. A. et al., (2006). Neuropharmacology 51, 386-396).
# [3] = tested on: 3′-5′ cAMP-PDE activity in bovine testis, caput, cauda and seminal vesicles homogenates; assay: 3′-5′ cAMP-PDE assay in bovine testis, caput, cauda and seminal vesicles homogenates; conditions: Rol 10 μM, Papa 400 nM (FIG. 3)
# Method: After thoroughly vortex-agitating for about one minute, samples were centrifuged at 10 000×g for 4 minutes at room temperature. Supernatant fluid was collected and diluted in different volumes of hypotonic buffer depending on the tissue. Testis, caput and cauda homogenates were diluted in 1 mL of hypotonic buffer while seminal vesicle homogenates were diluted in 2 mL of hypotonic buffer. Homogenates were kept on ice until subjected to PDE assay. The cAMP enzymatic assay (PDE assay) was conducted as previously described ([…]. et al., (2006). BMC developmental biology 6, 47). […] J. et al., (1979). Adv Cyclic Nucleotide Res 10, 69-92) with minor modifications. […] Measurements were also performed in the presence of PDE inhibitors: […] Cilostamide and Rolipram were purchased from Biomol. […] Each PDE assay was performed in triplicate for each experiment and each experiment was repeated at least three times. As described ([…]. et al., (2009). […] IBMX-sensitive PDE5 and PDE6 and IBMX-insensitive PDE9 activities are absent from these groups because cGMP is the specific substrate and then are not detected in the cAMP-PDE assay. […] J Dairy Sci 92, 3757-3765; […]., et al. (2007). Endocrinology 148, 1858-1867; Siuciak, J. A. et al., (2006). Neuropharmacology 51, 386-396).
smiles,measurement,setting,value
COc1ccc(Cc2nccc3cc(OC)c(OC)cc23)cc1OC [Papaverine],Share of cAMP-PDE activity that is papaverine-sensitive,[1],more than 50%
same,Inhibitor-sensitive PDE activity in human seminal plasma (in words),[2],low percentage
same,Inhibitor-sensitive PDE activity in bovine male reproductive tissues (in words),[3],low percentage
